Measured values reported in article PMC10364322, “Evaluation of chronic drug-induced electrophysiological and cytotoxic effects using human-induced pluripotent stem cell-derived cardiomyocytes (hiPSC-CMs)” (Frontiers in Pharmacology, 2023).
Where two headings read alike, the source gives them in different places.

Legend:
[1] = tested on: hiPSC-CMs (iCell-Cardiomyocytes^2)
Method: (§1) Cells were seeded according to the instructions of the cell provider, in fibronectin-coated 48-well MEA plates (Axion Cytoview Plates, M768-tMEA-48B) at a density suited to form a monolayer (i.e., 50 K/well) and maintained in culture in a stage incubator (37°C, 5% CO2).
(§2) At least 4 h before the beginning of the baseline measurements, a full medium exchange was performed (to a final volume of 400 µL per well). Neat compounds were dissolved in 100% DMSO at a stock concentration 1000-fold the highest target concentration. […] Afterwards, these stock solutions were diluted with Maintenance medium (CDi), to 10-fold the intended concentration. The final DMSO concentration in test solutions and vehicle control was 0.1%.
(§3) Spontaneous electrical activity was recorded in hiPSC-CMs monolayers as field potentials using the Maestro Pro MEA instrument (Axion Biosystems, Atlanta, GA, United States), which allows the maintenance of accurate temperature and CO2 levels (37°C, 5% CO2). After the plate was placed in the Maestro Pro and allowed to equilibrate for about 10 min, baseline acquisition of field potential and impedance signals was initiated and lasted for 5 min each. […] As impedance measures resistance of an applied alternating current through the hiPSC-CMs monolayer, a reduction in the attachment of hiPSC-CMs to the bottom of the well due to cell death or changes in the monolayer morphology, causes a drop in the impedance signal.
The potential presence of various arrhythmic events was evaluated and noted during the data analysis.
(§4) After the acquisition of all timepoint measurements, raw data were loaded into the data analysis software Axion Cardiac Analysis Tool (V.3.2.3). […] A.csv file containing information on the FP parameters per well, per time point, was then generated and used as input to the in-house data management system (SPEcII v.3.4, Unlimit-IT, Geel, Belgium), where descriptive statistics were calculated. Summary values at different time points after compound addition are expressed as percent change from baseline and shown as mean ± standard deviation (SD).
(§5) The nonparametric Wilcoxon-Mann Whitney Test was used to compare the percent change from the baseline (Δ%) value between the group treated with the compound at a given concentration and the group treated with the DMSO at each matching time points. A two-sided test at 5% significance level was considered. […] To assess the physiological relevance of changes, a tolerance interval of DMSO experiments was calculated at each time point, for each parameter. […] TIs indicate an interval where, with a certain confidence level (1- α = 0.95), a specified proportion (p = 0.80) of percent change for DMSO data falls. The lower and upper limits based on the TI values were used as cut-offs for the interpretation of the changes. For the cytotoxicity assays, measurements of fluorescence (after background fluorescence subtraction) from wells treated with the compounds were normalized by the average value of vehicle experiments (DMSO 0.1%) to obtain a DMSO-corrected, delta/delta percent change. Experiments from each condition, as delta/delta percent, were averaged and expressed as mean ± SD. Statistical analysis was performed using a non-parametric test (Kruskal-Wallis) and each treatment condition was compared to the relative DMSO 0.1%. Differences were considered statistically significant when the p-value was smaller than 0.05.

[2] = free therapeutic Cmax in humans; ref FDA-approved drug packages, PharmaPendium; cited from earlier work
[3] = tested on: hiPSC-CMs (iCell-Cardiomyocytes^2); experiment: MEA impedance (cytotoxicity readout) in hiPSC-CMs
Method: as §1, §2, §3, §4, §5

[4] = all concentrations tested, up to 96 h

BR (beating rate), % change from baseline ([1]; 3 µM, 72h): -10±2% | FPD (field-potential duration), % change from baseline ([1]; 3 µM, 72h): 16.3±2.2% | BR (beating rate), % change from baseline ([1]; 3 µM, 96h): -18±1% | FPD (field-potential duration), % change from baseline ([1]; 3 µM, 96h): 25.2±3.5% | BR (beating rate), % change from baseline ([1]; 3 µM, 2h): 2±2% | FPD (field-potential duration), % change from baseline ([1]; 3 µM, 2h): 2.5±1.6% | BR (beating rate), % change from baseline ([1]; 3 µM, 24h): 1±2% | FPD (field-potential duration), % change from baseline ([1]; 3 µM, 24h): 6.2±3% | BR (beating rate), % change from baseline ([1]; 3 µM, 48h): -7±1% | FPD (field-potential duration), % change from baseline ([1]; 3 µM, 48h): 13.2±2.8% | BR (beating rate), % change from baseline ([1]; 10 µM, 2h): 3±2% | FPD (field-potential duration), % change from baseline ([1]; 10 µM, 2h): 4±7.9% | BR (beating rate), % change from baseline ([1]; 10 µM, 24h): 2±3% | FPD (field-potential duration), % change from baseline ([1]; 10 µM, 24h): 5.8±4.5% | BR (beating rate), % change from baseline ([1]; 10 µM, 48h): -8±3% | FPD (field-potential duration), % change from baseline ([1]; 10 µM, 48h): 12.2±6.3% | BR (beating rate), % change from baseline ([1]; 10 µM, 72h): -9±2% | FPD (field-potential duration), % change from baseline ([1]; 10 µM, 72h): 14.6±6.7% | BR (beating rate), % change from baseline ([1]; 10 µM, 96h): -17±3% | FPD (field-potential duration), % change from baseline ([1]; 10 µM, 96h): 23.3±7.8% | BR (beating rate), % change from baseline ([1]; 30 µM, 2h): 3±2% | FPD (field-potential duration), % change from baseline ([1]; 30 µM, 2h): 0.9±1.8% | BR (beating rate), % change from baseline ([1]; 30 µM, 24h): 0±4% | FPD (field-potential duration), % change from baseline ([1]; 30 µM, 24h): 6.7±3.9% | BR (beating rate), % change from baseline ([1]; 30 µM, 48h): -8±2% | FPD (field-potential duration), % change from baseline ([1]; 30 µM, 48h): 13.5±5.1% | BR (beating rate), % change from baseline ([1]; 30 µM, 72h): -9±3% | FPD (field-potential duration), % change from baseline ([1]; 30 µM, 72h): 15.4±5% | BR (beating rate), % change from baseline ([1]; 30 µM, 96h): -18±4% | FPD (field-potential duration), % change from baseline ([1]; 30 µM, 96h): 23.3±4.7% | BR (beating rate), % change from baseline ([1]; 100 µM, 2h): 2±3% | FPD (field-potential duration), % change from baseline ([1]; 100 µM, 2h): 0.2±2.9% | BR (beating rate), % change from baseline ([1]; 100 µM, 24h): -2±3% | FPD (field-potential duration), % change from baseline ([1]; 100 µM, 24h): 7.2±3.6% | BR (beating rate), % change from baseline ([1]; 100 µM, 48h): -7±2% | FPD (field-potential duration), % change from baseline ([1]; 100 µM, 48h): 13.4±3% | BR (beating rate), % change from baseline ([1]; 100 µM, 72h): -10±3% | FPD (field-potential duration), % change from baseline ([1]; 100 µM, 72h): 17.6±2% | BR (beating rate), % change from baseline ([1]; 100 µM, 96h): -16±4% | FPD (field-potential duration), % change from baseline ([1]; 100 µM, 96h): 23.9±1.7%
SMILES: CC(=O)Oc1ccccc1C(=O)O [Aspirin]
cessation of beating, flat T-wave or arrhythmic-like events [1, 4]: no cessation of beating, flat T-wave or arrhythmic-like events were detected | Free Cmax [2]: 11.1 µM | Imp (impedance), % change from baseline ([3]; 3 µM, 72h): -2±2% | Imp (impedance), % change from baseline ([3]; 3 µM, 96h): -7±3% | Imp (impedance), % change from baseline ([3]; 3 µM, 2h): 5±3% | Imp (impedance), % change from baseline ([3]; 3 µM, 24h): -9±4% | Imp (impedance), % change from baseline ([3]; 3 µM, 48h): -10±2% | Imp (impedance), % change from baseline ([3]; 10 µM, 2h): 6±2% | Imp (impedance), % change from baseline ([3]; 10 µM, 24h): -8±3% | Imp (impedance), % change from baseline ([3]; 10 µM, 48h): -7±3% | Imp (impedance), % change from baseline ([3]; 10 µM, 72h): -4±5% | Imp (impedance), % change from baseline ([3]; 10 µM, 96h): -6±6% | Imp (impedance), % change from baseline ([3]; 30 µM, 2h): 6±4% | Imp (impedance), % change from baseline ([3]; 30 µM, 24h): -4±3% | Imp (impedance), % change from baseline ([3]; 30 µM, 48h): -8±3% | Imp (impedance), % change from baseline ([3]; 30 µM, 72h): -1±2% | Imp (impedance), % change from baseline ([3]; 30 µM, 96h): -3±2% | Imp (impedance), % change from baseline ([3]; 100 µM, 2h): 8±1% | Imp (impedance), % change from baseline ([3]; 100 µM, 24h): -7±4% | Imp (impedance), % change from baseline ([3]; 100 µM, 48h): -11±3% | Imp (impedance), % change from baseline ([3]; 100 µM, 72h): -2±6% | Imp (impedance), % change from baseline ([3]; 100 µM, 96h): -6±7% | effect on impedance [3, 4]: did not have a significant effect on impedance
